SMILES strings stand for the structures. Calls of active or inactive are those of the source. The rule behind the calls is not given here.

The values below come from ChEMBL document CHEMBL5143698, “Phenotypic screen identifies FOXO inhibitor to counteract maturation and promote expansion of human iPS cell-derived cardiomyocytes” (Bioorg Med Chem, 2022).

Series [1] in a line: Antiproliferative activity against human iPSC derived cardiomyocytes assessed as fold increase in cell number at 100 nM incubated for 4 days without passaging by Hoechst staining based analysis. It is filed as functional, iPSC-CM. Particulars: time 4 day.
Series [2] in a line: Cytotoxicity against human iPSC derived cardiomyocytes at >=500 nM incubated for 4 days without passaging by Hoechst staining based analysis. The series is classed as toxicity, cell-based. Particulars: ipsc-cm, 96 h, 0.5 µM, time 4 day.
A further series deals with Forkhead box protein O1 (Homo sapiens, UniProt Q12778). In words: Inhibition of FOXO-1 in human HepG2 cells incubated for 20 hrs by Renilla luciferase reporter gene assay. The series is classed as cell-based. (In a reporter assay the amount or activity of a reporter protein is the signal.)
Series [3] is described as follows: (§1) Antiproliferative activity against human iPSC derived cardiomyocytes assessed as increase in cell number by measuring fold change after 3 passages at 100 nM incubated for 2 days by Hoechst staining based analysis. The series is classed as functional, iPSC-CM. The following applies: time 2 day.
For series [4], the system named is iPSC-CM. Described as §1. The series is classed as functional. The following applies: time 2.0 day.
In series [5] the test system is iPSC-CM. In words: Upregulation of MYH6 gene expression in human iPSC derived cardiomyocytes at 100 nM incubated for 5 days by qRT-PCR analysis. The series is classed as functional, cell-based. The following applies: time 5.0 day. On the technique in general: In qPCR the cycle at which signal appears reflects the starting amount.
The test system of series [6] is iPSC-CM. Put plainly: Upregulation of TBX2 gene expression in human iPSC derived cardiomyocytes at 100 nM incubated for 5 days by qRT-PCR analysis. Particulars: time 5.0 day. The series is classed as functional, cell-based.
Series [7] relates to iPSC-CM. Put plainly: Upregulation of IRX4 gene expression in human iPSC derived cardiomyocytes aat 100 nM incubated for 5 days by qRT-PCR analysis. Particulars: time 5.0 day. It is filed as functional, cell-based.
Series [8] relates to iPSC-CM. Put plainly: Downregulation of MYH7 gene expression in human iPSC derived cardiomyocytes measured after two passages following incubation for 5 days by qRT PCR analysis. The series is classed as functional, cell-based. Particulars: dose 3-100 nM, time 5.0 day, DDE = dose-dependent effect.
Series [9] relates to iPSC-CM. In words: Downregulation of MYL2 gene expression in human iPSC derived cardiomyocytes measured after two passages following incubation for 5 days by qRT PCR analysis. The series is classed as functional, cell-based. The following applies: dose 3-100 nM, time 5.0 day, DDE = dose-dependent effect.
The test system of series [10] is iPSC-CM. In words: Downregulation of NPPA gene expression in human iPSC derived cardiomyocytes measured after two passages following incubation for 5 days by qRT PCR analysis. The series is classed as functional, cell-based. The following applies: dose 3-100 nM, time 5.0 day, DDE = dose-dependent effect.
In series [11] the test system is iPSC-CM. Put plainly: Downregulation of MLC2v protein level in human iPSC derived cardiomyocytes at 100 nM incubated for 3 weeks by immunofluorescence assay. The series is classed as functional, cell-based.
Series [12] has as its system iPSC-CM. In words: Downregulation of ANP protein level in human iPSC derived cardiomyocytes at 100 nM incubated for 3 weeks by immunofluorescence assay. The series is classed as functional, cell-based.
The subject of series [13] is iPSC-CM. Put plainly: Downregulation of MYH7 gene expression in human iPSC derived cardiomyocytes at 100 nM incubated for 5 days by qRT-PCR analysis. The series is classed as functional, cell-based. Particulars: time 5.0 day.
Series [14] concerns iPSC-CM. Put plainly: Downregulation of MYL2 gene expression in human iPSC derived cardiomyocytes at 100 nM incubated for 5 days by qRT-PCR analysis. It is filed as functional, cell-based. The following applies: time 5.0 day.
Series [15] concerns iPSC-CM. In words: Downregulation of NPPA gene expression in human iPSC derived cardiomyocytes at 100 nM incubated for 5 days by qRT-PCR analysis. The series is classed as functional, cell-based. Particulars: time 5.0 day.

Chain of Forkhead box protein O1 (Q12778 whole entry): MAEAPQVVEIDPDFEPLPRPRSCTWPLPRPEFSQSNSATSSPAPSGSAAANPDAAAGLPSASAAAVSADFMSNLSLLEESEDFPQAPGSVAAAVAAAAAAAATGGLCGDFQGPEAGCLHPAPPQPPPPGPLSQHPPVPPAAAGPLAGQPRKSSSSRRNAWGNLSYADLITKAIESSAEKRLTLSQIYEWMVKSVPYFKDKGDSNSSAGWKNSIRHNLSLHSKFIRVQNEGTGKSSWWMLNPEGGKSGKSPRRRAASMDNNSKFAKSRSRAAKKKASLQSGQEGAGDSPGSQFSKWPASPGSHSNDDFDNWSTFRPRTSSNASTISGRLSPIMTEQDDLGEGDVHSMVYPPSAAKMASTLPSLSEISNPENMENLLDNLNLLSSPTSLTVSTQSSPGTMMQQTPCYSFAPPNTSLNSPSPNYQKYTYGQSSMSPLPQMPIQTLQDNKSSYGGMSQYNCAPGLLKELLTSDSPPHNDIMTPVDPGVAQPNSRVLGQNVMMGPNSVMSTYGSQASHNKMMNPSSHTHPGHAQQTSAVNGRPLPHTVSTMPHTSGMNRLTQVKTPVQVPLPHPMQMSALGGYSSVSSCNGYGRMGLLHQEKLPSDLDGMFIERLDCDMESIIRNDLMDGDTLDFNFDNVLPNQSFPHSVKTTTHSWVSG

The term IC50 denotes the concentration that inhibits the measured activity by half. Read a low IC50 as inhibition by little substance. As for `CCn1cc(C(=O)O)c(=O)c2c(N)c(F)c(NC3CCCCC3)cc21`, the “fold change (FC)” value was over 3 in [1] and over 30 in series [3]. The Activity result was “Toxic” in [2], “Dde” with iPSC-CM [8], “Dde” with iPSC-CM [9] and “Dde” in the series on iPSC-CM [10]. At Forkhead box protein O1, this molecule had an IC50 of 33 nM. Moreover, the result in the series on iPSC-CM [4], in the series on iPSC-CM [5], in the series with iPSC-CM [6], with iPSC-CM [7], with iPSC-CM [11] and in the series on iPSC-CM [12] was Active. Besides, the result in the series on iPSC-CM [13], with iPSC-CM [14] and in the series on iPSC-CM [15] was Active.
